Measured values as given in PubChem BioAssay AID276 (DTP/NCI, 2004).
Several values for one entry are separate records, joined by “and”; a condition that tells them apart may be missing. Equal entries are not always repeated. Inconclusive results and toxic doses are left out.

Tested on: B6C3F1 mice, Lewis lung carcinoma iv, survival T/C
Experiment: NCI In Vivo Anticancer Drug Screen. Data for tumor model Lewis Lung Carcinoma (intravenous) in B6C3F1 mice
Settings: endpoint: median survival time, higher = longer survival
In short: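 Tumors were transplanted into mice, which were then dosed with compound or vehicle. Survival was recorded in each group, and the treated figure was divided by the control figure.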

[1] = dose: 100.0 mg/kg/injection, schedule: Q01DX009 (ip), vehicle: saline
[2] = dose: 200.0 mg/kg/injection, schedule: Q01DX009 (ip), vehicle: saline
[3] = dose: 5.0 mg/kg/injection, schedule: Q01DX009 (ip), vehicle: saline with Tween-80
[4] = dose: 10.0 mg/kg/injection, schedule: Q01DX009 (ip), vehicle: saline with Tween-80
[5] = dose: 25.0 mg/kg/injection, schedule: Q01DX009 (ip), vehicle: saline
[6] = dose: 50.0 mg/kg/injection, schedule: Q01DX009 (ip), vehicle: saline
[7] = dose: 5.0 mg/kg/injection, schedule: Q01DX009 (ip), vehicle: saline
[8] = dose: 10.0 mg/kg/injection, schedule: Q01DX009 (ip), vehicle: saline
[9] = dose: 20.0 mg/kg/injection, schedule: Q01DX009 (ip), vehicle: saline
[10] = dose: 25.0 mg/kg/injection, schedule: Q01DX009 (ip), vehicle: saline with Tween-80
[11] = dose: 50.0 mg/kg/injection, schedule: Q01DX009 (ip), vehicle: saline with Tween-80
[12] = dose: 100.0 mg/kg/injection, schedule: Q01DX009 (ip), vehicle: saline with Tween-80
[13] = dose: 200.0 mg/kg/injection, schedule: Q01DX009 (ip), vehicle: saline with Tween-80
[14] = dose: 400.0 mg/kg/injection, schedule: Q01DX009 (ip), vehicle: saline with Tween-80
[15] = dose: 12.5 mg/kg/injection, schedule: Q01DX009 (ip), vehicle: Klucel (hydroxypropylcellulose) (HPC)
[16] = dose: 25.0 mg/kg/injection, schedule: Q01DX009 (ip), vehicle: Klucel (hydroxypropylcellulose) (HPC)
[17] = dose: 50.0 mg/kg/injection, schedule: Q01DX009 (ip), vehicle: Klucel (hydroxypropylcellulose) (HPC)
[18] = dose: 100.0 mg/kg/injection, schedule: Q01DX009 (ip), vehicle: Klucel (hydroxypropylcellulose) (HPC)
[19] = dose: 6.25 mg/kg/injection, schedule: Q01DX009 (ip), vehicle: saline with Tween-80
[20] = dose: 12.5 mg/kg/injection, schedule: Q01DX009 (ip), vehicle: saline with Tween-80

`COC1/C=C/C=C(/C)Cc2cc(O)c(Cl)c(c2)N(C)C(=O)CC(OC(=O)C(C)C)C2(C)OC2C(C)C2CC1(O)NC(=O)O2` (stereo unspecified) was tested, and the T/C (dose: 0.06 mg/kg/injection, schedule: Q01DX009 (ip), vehicle: saline + alcohol) was 101 % of control, the T/C (dose: 0.12 mg/kg/injection, schedule: Q01DX009 (ip), vehicle: saline + alcohol) was 96 % of control and the T/C (dose: 0.25 mg/kg/injection, schedule: Q01DX009 (ip), vehicle: saline + alcohol) was 100 % of control. The T/C (dose: 0.5 mg/kg/injection, schedule: Q01DX009 (ip), vehicle: saline + alcohol) was 100 % of control.

`CC(C)(C)c1ccc(CN2CCN(C(c3ccccc3)c3ccc(Cl)cc3)CC2)cc1` (stereo unspecified) was tested, and the T/C (dose: 8.0 mg/kg/injection, schedule: Q01DX009 (ip), vehicle: Klucel (hydroxypropylcellulose) (HPC)) was 117 % of control, the T/C (dose: 16.0 mg/kg/injection, schedule: Q01DX009 (ip), vehicle: Klucel (hydroxypropylcellulose) (HPC)) was 115 % of control and the T/C (dose: 32.0 mg/kg/injection, schedule: Q01DX009 (ip), vehicle: Klucel (hydroxypropylcellulose) (HPC)) was 105 % of control. The T/C (dose: 64.0 mg/kg/injection, schedule: Q01DX009 (ip), vehicle: Klucel (hydroxypropylcellulose) (HPC)) was 103 % of control.

For `CNC=O`, the T/C [1] was 106 % of control and the T/C [2] was 110 % of control.

With `C[n+]1cccc(NC(=O)c2ccc(NC(=O)C34CCC(C(=O)Nc5ccc(C(=O)Nc6ccc[n+](C)c6)cc5)(CC3)CC4)cc2)c1` the T/C [3] was 106 % of control and the T/C [4] was 122 % of control.

With `CC1(C)CC23C4COC(=O)C2CCC1C3CC4=O` (stereo unspecified) the T/C (dose: 3.0 mg/kg/injection, schedule: Q01DX009 (ip), vehicle: DMSO) was 103 % of control, the T/C (dose: 6.0 mg/kg/injection, schedule: Q01DX009 (ip), vehicle: DMSO) was 97 % of control and 99 % of control and the T/C (dose: 12.0 mg/kg/injection, schedule: Q01DX009 (ip), vehicle: DMSO) was 100 % of control and 102 % of control. The T/C (dose: 24.0 mg/kg/injection, schedule: Q01DX009 (ip), vehicle: DMSO) was 95 % of control and 124 % of control, the T/C (dose: 48.0 mg/kg/injection, schedule: Q01DX009 (ip), vehicle: DMSO) was 103 % of control and 106 % of control and the T/C (dose: 96.0 mg/kg/injection, schedule: Q01DX009 (ip), vehicle: DMSO) was 102 % of control. The T/C (dose: 192.0 mg/kg/injection, schedule: Q01DX009 (ip), vehicle: DMSO) was 98 % of control.

In the case of `CCCCCCCC(=O)O[C@H]1[C@H]2[C@@H](CC1(C)C)C(=O)[C@]13O[C@H]1C(=O)[C@]1(CO1)[C@]23C`, the T/C (dose: 1.25 mg/kg/injection, schedule: Q01DX009 (ip), vehicle: saline with Tween-80) is reported as 100 % of control, the T/C (dose: 2.5 mg/kg/injection, schedule: Q01DX009 (ip), vehicle: saline with Tween-80) is reported as 97 % of control and the T/C [3] is reported as 102 % of control. For the same compound, the T/C [4] was 88 % of control.

With `Nc1n[n+](-c2ccccc2)no1` the T/C (dose: 3.13 mg/kg/injection, schedule: Q01DX009 (ip), vehicle: water) was 108 % of control, the T/C (dose: 6.25 mg/kg/injection, schedule: Q01DX009 (ip), vehicle: water) was 100 % of control and the T/C (dose: 12.5 mg/kg/injection, schedule: Q01DX009 (ip), vehicle: water) was 113 % of control. For the same compound, the T/C (dose: 25.0 mg/kg/injection, schedule: Q01DX009 (ip), vehicle: water) was 114 % of control.

In the case of `C#CCNC1=C(C)C(=O)C2=C(C1=O)[C@H](COC(N)=O)[C@]1(OC)[C@@H]3N[C@@H]3CN21`, the T/C (dose: 6.25 mg/kg/injection, schedule: Q01DX009 (ip), vehicle: distilled water + Tween-80) is reported as 102 % of control.

`COc1cc2c(ccc3c4cc(OC)c(OC)cc4c[n+](C)c23)cc1O` was tested, and the T/C [5] was 111 % of control and the T/C [6] was 113 % of control.

`Cc1ccccc1CN1C2=NCCN2C(=O)C2=C1CCN(S(=O)(=O)c1ccc(Cl)c(S(N)(=O)=O)c1)C2` was tested, and the T/C (dose: 12.0 mg/kg/injection, schedule: Q01DX009 (ip), vehicle: saline) was 103 % of control, the T/C [5] was 99 % of control and the T/C [6] was 94 % of control. For the same compound, the T/C [1] was 99 % of control and 101 % of control, the T/C [2] was 96 % of control and 102 % of control and the T/C (dose: 400.0 mg/kg/injection, schedule: Q01DX009 (ip), vehicle: saline) was 94 % of control and 98 % of control.

With `NC(=O)c1ccc[n+](Cc2c(Cl)cccc2Cl)c1` the T/C [7] was 104 % of control, the T/C [8] was 105 % of control and the T/C [9] was 104 % of control. For the same compound, the T/C (dose: 40.0 mg/kg/injection, schedule: Q01DX009 (ip), vehicle: saline) was 91 % of control.

For `O=P(O)(NCCCl)NCCCl`, the T/C (dose: 25.0 mg/kg/injection, schedule: Q01DX001 (ip), vehicle: saline with Tween-80) was 108 % of control, the T/C (dose: 100.0 mg/kg/injection, schedule: Q01DX001 (ip), vehicle: saline with Tween-80) was 184 % of control and 226 % of control and 312 % of control and the T/C (dose: 200.0 mg/kg/injection, schedule: Q01DX001 (ip), vehicle: saline with Tween-80) was 281 % of control.

With `CN(C=O)C(C(=O)Nc1cccc2c(OC(=O)C(N(C)C=O)(N(C)C=O)N(C)C=O)c(N=Nc3ccc(S(=O)(=O)Nc4nccs4)cc3)cc(N=Nc3ccc(S(=O)(=O)Nc4nccs4)cc3)c12)(N(C)C=O)N(C)C=O` (tested in a mixture with another compound) the T/C [10] was 103 % of control, the T/C [11] was 98 % of control and the T/C [12] was 99 % of control and 104 % of control. For the same compound, the T/C [13] was 94 % of control and 98 % of control, the T/C [14] was 103 % of control and 110 % of control and the T/C (dose: 800.0 mg/kg/injection, schedule: Q01DX009 (ip), vehicle: saline with Tween-80) was 107 % of control.

In the case of `CC(C)(C)C1CCCCC1`, the T/C [15] is reported as 92 % of control, the T/C [16] is reported as 93 % of control and the T/C [17] is reported as 108 % of control. For the same compound, the T/C [18] was 101 % of control, the T/C (dose: 200.0 mg/kg/injection, schedule: Q01DX009 (ip), vehicle: Klucel (hydroxypropylcellulose) (HPC)) was 103 % of control and the T/C (dose: 400.0 mg/kg/injection, schedule: Q01DX009 (ip), vehicle: Klucel (hydroxypropylcellulose) (HPC)) was 96 % of control.

For `Nc1nc(N)c2c(ccc3c2ccn3Cc2cccc([N+](=O)[O-])c2)n1`, the T/C (dose: 1.56 mg/kg/injection, schedule: Q01DX009 (ip), vehicle: saline with Tween-80) was 98 % of control, the T/C (dose: 3.12 mg/kg/injection, schedule: Q01DX009 (ip), vehicle: saline with Tween-80) was 102 % of control and the T/C [19] was 103 % of control.

In the case of `NS(=O)(=O)OCCCCCCCOS(N)(=O)=O`, the T/C [20] is reported as 91 % of control, the T/C [10] is reported as 98 % of control and the T/C [11] is reported as 88 % of control.

For `CCCCc1ccc2nc(NC(=O)OC)[nH]c2c1`, the T/C [19] was 111 % of control, the T/C [20] was 97 % of control and the T/C [10] was 95 % of control. The T/C [11] was 95 % of control and the T/C [12] was 111 % of control.

For `COc1cc(C2c3cc4c(cc3C(O)C(CO)C2CO)OCO4)cc(OC)c1OC` (stereo unspecified), the T/C [15] was 102 % of control, the T/C [16] was 104 % of control and the T/C [17] was 102 % of control. For the same compound, the T/C [18] was 113 % of control.

`O=NN(CCF)C(=O)N[C@H]1CCCC[C@H]1O` was tested, and the T/C (dose: 2.5 mg/kg/injection, schedule: Q01DX009 (ip), vehicle: saline) was 105 % of control, the T/C [7] was 121 % of control and the T/C [8] was 173 % of control. The T/C [9] was 312 % of control.

In the case of `COc1cc2cc[n+](C)c(Cc3ccccc3)c2cc1OC`, the T/C (dose: 3.13 mg/kg/injection, schedule: Q01DX009 (ip), vehicle: saline with Tween-80) is reported as 112 % of control, the T/C [19] is reported as 120 % of control and the T/C [20] is reported as 96 % of control. The T/C [10] was 99 % of control and the T/C [11] was 91 % of control.

In the case of `O=C(O)C1CSCN1` (stereo unspecified), the T/C (dose: 3.12 mg/kg/injection, schedule: Q01DX009 (ip), vehicle: saline) is reported as 99 % of control, the T/C (dose: 6.25 mg/kg/injection, schedule: Q01DX009 (ip), vehicle: saline) is reported as 108 % of control and the T/C (dose: 12.5 mg/kg/injection, schedule: Q01DX009 (ip), vehicle: saline) is reported as 100 % of control. For the same compound, the T/C [5] was 101 % of control, the T/C [6] was 101 % of control and the T/C [1] was 106 % of control.

In the case of `O=C(O)C1Cc2nc[nH]c2CN1CO` (stereo unspecified), the T/C [20] is reported as 109 % of control, the T/C [10] is reported as 104 % of control and the T/C [11] is reported as 99 % of control. The T/C [12] was 114 % of control, the T/C [13] was 103 % of control and the T/C [14] was 98 % of control.
